Consider 6 compounds from patent US10912297B2, “Phenoxyhalogenphenylamidines and the use thereof as fungicides” (priority 2015, dated 2021).

Structures are written as SMILES. Where two headings read alike, the source gives them in different places.

Data set [1] deals with soy bean plants. The data set is described as follows: Plant compatibility test using soy bean plants. In kind it is in vivo. Particulars: soy bean young plants sprayed at 500 ppm, evaluated 6 days after application; 0% no damages, 100% totally damaged. How it is done: [table] To produce a suitable preparation of active compound, 1 part by weight of active compound is mixed with the stated amounts of solvent and emulsifier, and the concentrate is diluted with water to the desired concentration. Young plants are sprayed with the preparation of active compound at the stated application rate. The plants are then placed in a greenhouse at approximately 21° C. and a relative atmospheric humidity of approximately 80%. The test is evaluated 6 days after application and comprises plant damages like leaf deformation, chlorosis, necrosis, shoot damage or stunting. 0% means no damages are observed, while 100% means that the plants are totally damaged.

A short description of data set [2]: Hydrolysis stability test in homogeneous aqueous solution. In kind it is physicochemical. Particulars: 50° C., 24 hours, first order degradation assumed. How it is done: To produce a suitable preparation of active compound for the hydrolysis stability test, a 1000 ppm stock solution (1 mg/mL) of active compound in acetonitrile is prepared. Three aliquots of […] are pipetted into HPLC vials and diluted with 750 μL acetonitrile. In each vial 850 μL of the appropriate buffer solution (pH4, pH7 and pH9, CertiPUR, Fa. Merck) is added. The buffer containing HPLC vials are incubated in a heated sample tray at 50° C. for 24 hours. The amount A of the active compound is analyzed by HPLC (UV-peak areas at 210 nm) at eight points in time t: 0 min, 140 min, 350 min, 560 min, 770 min, 980 min, 1190 min, 1400 min. The half-life time (T1/2) of each active compound is calculated via linear regression by using the following equations (first order degradation assumed): [formula] [formula]

The nature of data set [3]: Photolysis stability test. Particulars: dried film in MTP, irradiated at 30° C. and 480 W/m^2 (SUNTEST), first order degradation assumed. It counts as physicochemical. How it is done:
The stability towards photolysis of the phenylamidines described in the prior art is good but an improved stability towards photolysis may be an advantage as it could offer a longer lasting efficacy when applied to plants by foliar application. The improved stability towards photolysis was proven by a […] stability test as described below: To produce a suitable preparation of active compound for the photolysis stability test, a 1000 ppm stock solution (1 mg/mL) of active compound in acetonitrile is prepared. Aliquots of […] of this stock solution are pipetted in three wells of a Bio-one microtiter plate (MTP) UVStar 96 (Fa. Greiner, Art. No. 655801). The MTP is dried overnight in the dark and then irradiated at 30° C. and 480 W/m^2 with a UV irradiation device SUNTEST XLS+ or SUNTEST CPS (Fa. Atlas). The amount A of the active compound is analyzed by HPLC (UV-peak areas at 210 nm) at five points in time t: 0 h, 2 h, 4 h, 6 h, 24 h by using the following method: 200 μL acetonitrile is added in the respective well of the MTP and the MTP is sealed with a Bio-one sealing foil, viewseal 80/140 mm (Fa. Greiner, Art. No. 676070). The MTPs are sonicated for 3 minutes and analysed by HPLC. The half-life time (T1/2) of each active compound is calculated via linear regression by using the following equations (first order degradation assumed): […]

Data set [4] is described as follows: Log P by HPLC on reversed phase columns (EEC directive 79/831 Annex V.A8). In kind it is physicochemical. Particulars: reversed phase HPLC column, LC-UV. How it is done: Measurement of Log P values was performed according to EEC directive 79/831 Annex V.A8 by HPLC (High Performance Liquid Chromatography) on reversed phase columns with the following methods: • ^[a] Log P value is determined by measurement of LC-UV, in an acidic range, with 0.1% formic acid in water and acetonitrile as eluent (linear gradient from 10% acetonitrile to 95% acetonitrile). • ^[b] Log P value is determined by measurement of LC-UV, in a neutral range, with 0.001 molar ammonium acetate solution in water and acetonitrile as eluent (linear gradient from 10% acetonitrile to 95% acetonitrile). […] Lambda-max-values were determined using UV-spectra from 200 nm to 400 nm and the peak values of the chromatographic signals.

The mark [5] stands for this setting: acidic range, 0.1% formic acid in water and acetonitrile as eluent, read-out: LogP [a].
Where [6] appears, read: neutral range, 0.001 molar ammonium acetate solution in water and acetonitrile as eluent, read-out: LogP [b].

With `CCN(C)/C=N/c1cc(C)c(Oc2ccccc2)cc1C` [Compound no. 1 known from WO2008/110313, reference compound], the Necrosis in % in data set [1] turned out to be 90%.

For the compound `CCN(C)/C=N/c1cc(C)c(Oc2ccccc2)cc1Cl` [Example I-01, N′-(2-chloro-5-methyl-4-phenoxyphenyl)-N-ethyl-N-methylimidoformamide], the half-life at 59 µg/mL is 45 h in data set [2] (buffer pH 7/acetonitrile, read-out: T1/2 (pH 7) (converted)) and 40 h in data set [2] (buffer pH 9/acetonitrile, read-out: T1/2 (pH 9) (converted)). Also, the Necrosis in % in data set [1] is given as 50%. The compound further yielded a half-life in data set [3] greater than 200 h. Besides, the chromatographic logP in data set [4] (setting [5]) turned out to be 1.6.

`CCN(C)/C=N/c1cc(C)c(Oc2ccccc2)cc1Br` [Example I-02, N′-(2-bromo-5-methyl-4-phenoxyphenyl)-N-ethyl-N-methylimidoformamide] had a Necrosis in % in data set [1] of 10%. Further, the results for the chromatographic logP in data set [4] (setting [5]) and in data set [4] (setting [6]) were 1.61 and 4.67, respectively.

For the compound `CCN(C)C=Nc1cc(C)c(Oc2ccccc2)cc1F` [Example I-03, N-ethyl-N′-(2-fluoro-5-methyl-4-phenoxyphenyl)-N-methylimidoformamide], the chromatographic logP in data set [4] (setting [5]) was 1.55; in data set [4] (setting [6]) it was 3.97.

Turning to `Cc1cc([N+](=O)[O-])c(Br)cc1Oc1ccccc1` [VI-02, 1-bromo-4-methyl-2-nitro-5-phenoxybenzene], in data set [4] (setting [5]), the chromatographic logP was 4.51.

With `Cc1cc(N)c(Br)cc1Oc1ccccc1` [VIII-02, 2-bromo-5-methyl-4-phenoxyaniline], the chromatographic logP was 3.66 in data set [4] (setting [5]) and 3.65 in data set [4] (setting [6]).
